Read-outs that look alike come from different tables or passages of the source.
Columns and labels:
[1] = biological target: tyrosine kinase FGFR1 (Homo sapiens (Human), UniProt P11362); test: In vitro kinase test (HTRF), FGFR1; assay type: biochemical; details: 60 min preincubation, 30 min reaction at 37° C.
Experimental: (§1) The effect of compounds of the present invention on tyrosine kinase FGFR1 and FGFR4 activity is evaluated by an in vitro kinase test. The method used in the test was homogeneous time-resolved fluorescence (HTRF).
(§2) Compound preparation: Add 45 μL of DMSO to 5 μL of stock solution at a concentration of 10 mM to prepare the solution LY2874455 at 1000 µM; then add 12 μL of the compound at 1000 μM to 88 µL of DMSO to prepare the solution LY2874455 at 120 μM as the starting concentration; add 48 μL of DMSO to 2 μL of stock solution at a concentration of 10 mM to prepare the solution BLU554 at 400 μM as the starting concentration; add 15 μL of DMSO to 10 μL of sample compound stock solution at a concentration of 10 mM to prepare a sample compound solution at 4 mM as the starting concentration; transfer the compound solution to the target plate with the dispenser Echo.
(§3) Kinase reaction: Add 5 μL of kinase solution to each well, incubate the compound and kinase at room temperature for 60 min, add 5 μL of substrate and ATP mixture to start reacting at 37° C. for a certain period of time (30 min for FGFR1 kinase test, and 40 min for FGFR4 kinase test), and then add 10 μL of X1665 and antibody detection reagent mixture to stop; after 60 min of incubation at room temperature, read the TR-FRET signal with microplate reader SPARK 10M at the transmit wavelength of 665 nm/612 nM. Test enzyme activity at 10 concentrations for each compound, and calculate the IC50 value of the compound with the data with the analysis software, as shown in Table 1.

[2] = biological target: tyrosine kinase FGFR4 (Homo sapiens (Human), UniProt P22455); test: In vitro kinase test (HTRF), FGFR4; assay type: biochemical; details: for IC50: HTRF, 60 min preincubation, 40 min reaction at 37° C.; for FGFR1 IC50 / FGFR4 IC50 ratio (FGFR4 selectivity): ratio of the FGFR1 and FGFR4 IC50 values
Experimental: as §1, §2, §3

[3] = test system: human hepatoma cells Hep3B; test: Cell proliferation test (CELL TITER-GLO); assay type: cell-based; details: 3 days incubation, CTG, read-out: IC50 Value of Compound for Hep3B Cells
Experimental: The effect of the compounds of the present invention on the proliferation of human hepatoma cells Hep3B is evaluated by an in vitro cell test. The method used in the test was CELL TITER-GLO (CTG).
Cell plating: Take Hep3B cells in the logarithmic growth phase, digest, centrifuge at 1,000 rpm for 5 min at room temperature and collect, resuspend with EMEM medium of 10% FBS and count, and inoculate into a 384-well microplate (#3765) at a density of 800 cells/well, 20 μL in each.
Compound preparation: Dissolve the compound in DMSO to prepare a stock solution at a concentration of 10 mM, dilute the sample compound stock solution to 2 mM with DMSO (6 μL of the stock solution plus 24 μL of DMSO) as the starting concentration, and dilute the control compound stock solution to 200 μM with DMSO (2 μL of the stock solution plus 98 μL of DMSO) as the starting concentration; dilute the compound 9 times with DMSO in gradient by 3 folds, and then dilute the compound to 40 times the final concentration dose with cell culture medium (2 μL of the compound plus 78 μL of […]).
Cell dosing: Add 5 μL (5×) of the compound to the corresponding wells, make sure the final concentrations of sample compounds are respectively 10000 nM, 3333 nM, 1111 nM, 370.37 nM, 123.46 nM, 41.15 nM, 13.72 nM, 4.57 nM, 1.52 nM, 0.50 nM, take 0.5% DMSO as the negative control, and incubate the microplate at 37° C. in 5% C02 for 3 days.
CTG detection: After 3 days of incubation, add 5 μL of Cell Titer-Glo® reagent per well, incubate on a shaker at 300 rpm for 60 min protected from light at room temperature, read the luminescence signals with microplate reader Spark 10M, and calculate the semi-inhibitory concentration of the compound on cell proliferation, that is, the IC50 value, with the analysis software, as shown in Table 2.

Sequence of tyrosine kinase FGFR1 (P11362 22-822): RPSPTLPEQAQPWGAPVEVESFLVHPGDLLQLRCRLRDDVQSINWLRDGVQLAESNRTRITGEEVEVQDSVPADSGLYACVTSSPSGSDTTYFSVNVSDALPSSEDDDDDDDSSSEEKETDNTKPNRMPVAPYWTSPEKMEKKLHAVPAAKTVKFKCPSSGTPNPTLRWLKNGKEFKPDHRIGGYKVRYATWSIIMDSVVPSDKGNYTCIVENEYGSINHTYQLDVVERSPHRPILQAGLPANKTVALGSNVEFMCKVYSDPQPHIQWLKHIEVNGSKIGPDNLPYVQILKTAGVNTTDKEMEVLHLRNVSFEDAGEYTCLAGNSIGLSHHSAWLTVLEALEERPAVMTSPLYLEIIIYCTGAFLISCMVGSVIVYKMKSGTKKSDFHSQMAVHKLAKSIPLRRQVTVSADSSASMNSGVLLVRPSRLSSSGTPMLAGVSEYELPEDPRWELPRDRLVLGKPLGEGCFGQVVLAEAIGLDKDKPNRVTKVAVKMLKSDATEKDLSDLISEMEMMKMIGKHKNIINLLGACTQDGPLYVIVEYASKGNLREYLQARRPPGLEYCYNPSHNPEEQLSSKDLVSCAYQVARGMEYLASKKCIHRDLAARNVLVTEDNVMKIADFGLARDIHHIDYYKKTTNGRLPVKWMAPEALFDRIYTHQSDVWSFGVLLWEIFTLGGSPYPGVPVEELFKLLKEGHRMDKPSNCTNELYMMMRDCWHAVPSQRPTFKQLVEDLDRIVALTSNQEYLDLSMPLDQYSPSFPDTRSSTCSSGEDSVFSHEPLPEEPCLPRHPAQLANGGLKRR
Sequence of tyrosine kinase FGFR4 (P22455 22-802): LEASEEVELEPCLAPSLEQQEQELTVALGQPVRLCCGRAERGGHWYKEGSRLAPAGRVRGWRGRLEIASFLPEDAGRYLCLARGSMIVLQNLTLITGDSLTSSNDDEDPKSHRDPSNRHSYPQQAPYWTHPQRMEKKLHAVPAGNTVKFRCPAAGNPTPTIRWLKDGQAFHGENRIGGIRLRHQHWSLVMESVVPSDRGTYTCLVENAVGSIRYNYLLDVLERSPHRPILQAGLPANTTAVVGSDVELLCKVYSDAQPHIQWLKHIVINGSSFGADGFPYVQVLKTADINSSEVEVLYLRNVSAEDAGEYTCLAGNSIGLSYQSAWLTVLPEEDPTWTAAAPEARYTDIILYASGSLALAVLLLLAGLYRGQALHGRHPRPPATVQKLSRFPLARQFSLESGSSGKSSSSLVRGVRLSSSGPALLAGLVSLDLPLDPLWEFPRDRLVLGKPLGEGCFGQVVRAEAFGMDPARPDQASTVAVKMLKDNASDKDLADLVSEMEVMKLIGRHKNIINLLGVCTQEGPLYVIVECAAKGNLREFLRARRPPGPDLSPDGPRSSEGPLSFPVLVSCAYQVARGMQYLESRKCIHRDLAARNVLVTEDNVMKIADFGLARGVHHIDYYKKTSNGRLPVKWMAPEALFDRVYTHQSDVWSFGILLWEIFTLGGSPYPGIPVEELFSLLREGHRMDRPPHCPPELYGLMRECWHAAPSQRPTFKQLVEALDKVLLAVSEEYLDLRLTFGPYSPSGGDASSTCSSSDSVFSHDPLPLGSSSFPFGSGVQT

## C=CC(=O)N[C@H]1CCOC[C@H]1Nc1ncc2cc(-c3c(Cl)c(OC)cc(OC)c3Cl)ccc2n1 [BLU554, reference compound]
[1]
  IC50: 0.624 µM
[2]
  IC50: 0.00598 µM
[3]; Homo sapiens, Hep3B, 72 h
  IC50: 0.0384 µM

## C=CC(=O)NCc1cc2c(cn1)CN(c1c(F)c(OC)nc(OC)c1F)C(=O)C21CC1 [Compound 1, N-((2′-(3,5-difluoro-2,6-dimethoxypyridine-4-yl)-3′-oxo-2′,3′-dihydro-1′H-spiro[cyclopropane-1,4′-[2,7]naphthine]-6′-yl)methyl) acrylamide]
[1]
  IC50: 3.66 µM
[2]
  IC50: 0.00857 µM
  FGFR1 IC50 / FGFR4 IC50 ratio (FGFR4 selectivity): 426
[3]
  IC50: 0.0526 µM

## C=CC(=O)Nc1cc(N2CCC(N3CCOCC3)CC2)ccc1Nc1cc2c(cn1)CN(c1c(F)c(OC)nc(OC)c1F)C(=O)C21CC1 [Compound 5, N-(2-((2′-(3,5-difluoro-2,6-dimethoxypyridine-4-yl)-3′-oxo-2′,3′-dihydro-1′H-spiro[cyclopropane-1,4′-[2,7]naphthyridine]-6′-yl)-amino)-5-(4-morpholinopiperidin-1-yl)phenyl)acrylamide]
[1]
  IC50: 0.006 µM
[2]
  IC50: 0.0003 µM
  FGFR1 IC50 / FGFR4 IC50 ratio (FGFR4 selectivity): 20

## C=CC(=O)Nc1ccccc1Nc1cc2c(cn1)CN(c1c(F)c(OC)nc(OC)c1F)C(=O)C21CC1 [Compound 7, N-(2-((2′-(3,5-difluoro-2,6-dimethoxypyridine-4-yl)-3′-oxo-2′,3′-dihydro-1′H-spiro[cyclopropane-1,4′-[2,7]naphthol]-6′-yl)amino)phenyl)acrylamide]
[1]
  IC50: 4.24 µM
[2]
  IC50: 0.00542 µM
  FGFR1 IC50 / FGFR4 IC50 ratio (FGFR4 selectivity): 782

## C=CC(=O)Nc1cccc(C)c1Nc1cc2c(cn1)CN(c1c(F)c(OC)nc(OC)c1F)C(=O)C21CC1 [Compound 8, N-(2-((2′-(3,5-difluoro-2,6-dimethoxypyridine-4-yl)-3′-oxo-2′,3′-dihydro-1′H-spiro[cyclopropane-1,4′-[2,7]naphthyridine]-6′-yl)amino)-3-methylphenyl)acrylamide]
[1]
  IC50: 8.57 µM
[2]
  IC50: 0.0027 µM
  FGFR1 IC50 / FGFR4 IC50 ratio (FGFR4 selectivity): 3172
[3]; Homo sapiens, Hep3B, 72 h
  IC50: 0.0565 µM

## C=CC(=O)Nc1cc(N2CCOCC2)ccc1Nc1cc2c(cn1)CN(c1c(F)c(OC)nc(OC)c1F)C(=O)C21CC1 [Compound 10, N-(2-((2′-(3,5-difluoro-2,6-dimethoxypyridine-4-yl)-3′-oxo-2′,3′-dihydro-1′H-spiro[cyclopropane-1,4′-[2,7]naphthyridine]-6′-yl)-amino)-5-morpholinophenyl) acrylamide]
[1]
  IC50: 0.984 µM
[2]
  IC50: 0.00067 µM
  FGFR1 IC50 / FGFR4 IC50 ratio (FGFR4 selectivity): 1468
[3]; Homo sapiens, Hep3B, 72 h
  IC50: 0.014 µM

## C=CC(=O)Nc1cc(N2CCOCC2)c(F)cc1Nc1cc2c(cn1)CN(c1c(F)c(OC)nc(OC)c1F)C(=O)C21CC1 [Compound 14, N-(2-((2′-(3,5-difluoro-2,6-dimethoxypyridine-4-yl)-3′-oxo-2′,3′-dihydro-1′H-spiro[cyclopropane-1,4′-[2,7]naphthyridine]-6′-yl)-amino)-4-fluoro-5-morpholinophenyl)acrylamide]
[1]
  IC50: > 9.93 µM
[2]
  IC50: 0.0026 µM
  FGFR1 IC50 / FGFR4 IC50 ratio (FGFR4 selectivity): 3817
[3]; Homo sapiens, Hep3B, 72 h
  IC50: 0.0381 µM

## C=CC(=O)Nc1cc(N2CCOCC2C)ccc1Nc1cc2c(cn1)CN(c1c(F)c(OC)nc(OC)c1F)C(=O)C21CC1 (centres unmarked) [Compound 15, N-(2-((2′-(3,5-difluoro-2,6-dimethoxypyridine-4-yl)-3′-oxo-2′,3′-dihydro-1′H-spiro[cyclopropane-1,4′-[2,7]naphthyridine]-6′-yl)-amino)-5-(3-methomorpholinyl)phenyl)acrylamide]
[1]
  IC50: 2.28 µM
[2]
  IC50: 0.00063 µM
  FGFR1 IC50 / FGFR4 IC50 ratio (FGFR4 selectivity): 3617
[3]
  IC50: 0.0153 µM

Source: patent US20240199625A1, “BICYCLIC HETEROCYCLIC FGFR4 INHIBITOR, PHARMACEUTICAL COMPOSITION AND PREPARATION COMPRISING SAME, AND APPLICATION THEREOF” (Hangzhou Apeloa Medicine Research Institute Co., Ltd., priority 2021, published 2024)
